Results from the NIST ThermoML archive (doi:10.1016/j.fluid.2007.06.001).
Numbers after ± are expanded uncertainties.

Assay: excess molar enthalpy (molar enthalpy of mixing); xn = mol fraction of the nth substance listed
Settings: Liquid

CCCC[n+]1ccn(C)c1.O=S(=O)([N-]S(=O)(=O)C(F)(F)F)C(F)(F)F + CCC(C)=O
353.15 K, 101 kPa
Settings	excess molar enthalpy [kcal/mol]
x2 = 0.0508	-0.0292 ± 0.00165
x2 = 0.1015	-0.0592 ± 0.00263
x2 = 0.1521	-0.0906 ± 0.00359
x2 = 0.2026	-0.118 ± 0.00454
x2 = 0.3035	-0.172 ± 0.00645
x2 = 0.4541	-0.239 ± 0.00884
x2 = 0.6039	-0.282 ± 0.0103
x2 = 0.7034	-0.289 ± 0.0105
x2 = 0.8026	-0.259 ± 0.00956
x2 = 0.8521	-0.229 ± 0.0086
x2 = 0.9015	-0.181 ± 0.00693
x2 = 0.9508	-0.112 ± 0.00454

CCCCCC[n+]1ccn(C)c1.O=S(=O)([N-]S(=O)(=O)C(F)(F)F)C(F)(F)F + CCCCCC
363.15 K, 101 kPa
Settings	excess molar enthalpy [kcal/mol]
x2 = 0.02	0.0124 ± 0.00112
x2 = 0.0501	0.035 ± 0.00182
x2 = 0.1002	0.073 ± 0.00311
x2 = 0.1503	0.104 ± 0.00406
x2 = 0.2003	0.123 ± 0.00478
x2 = 0.3003	0.126 ± 0.00502
x2 = 0.4004	0.107 ± 0.0043
x2 = 0.5004	0.0878 ± 0.00359
x2 = 0.6004	0.0711 ± 0.00311
x2 = 0.7003	0.0511 ± 0.00237
x2 = 0.8002	0.0328 ± 0.00177
x2 = 0.9001	0.0157 ± 0.00122
x2 = 0.9501	0.00801 ± 0.00098

CCCC[n+]1ccn(C)c1.O=S(=O)([N-]S(=O)(=O)C(F)(F)F)C(F)(F)F + CCCCCC
363.15 K, 101.3 kPa
Settings	excess molar enthalpy [kcal/mol]
x2 = 0.02	0.0134 ± 0.00117
x2 = 0.0501	0.0353 ± 0.00184
x2 = 0.1002	0.0689 ± 0.00287
x2 = 0.1503	0.0949 ± 0.00382
x2 = 0.2003	0.109 ± 0.0043
x2 = 0.3004	0.0941 ± 0.00382
x2 = 0.5004	0.0662 ± 0.00287
x2 = 0.7004	0.038 ± 0.00191
x2 = 0.9002	0.0116 ± 0.0011

CCn1cc[n+](C)c1.O=S(=O)([N-]S(=O)(=O)C(F)(F)F)C(F)(F)F + CCCCCC
353.15 K, 101.3 kPa
Settings	excess molar enthalpy [kcal/mol]
x2 = 0.0239	0.0297 ± 0.00167
x2 = 0.0472	0.0535 ± 0.00239
x2 = 0.07	0.066 ± 0.00287
x2 = 0.0923	0.0787 ± 0.00335
x2 = 0.1354	0.0756 ± 0.00311
x2 = 0.2162	0.0688 ± 0.00287
x2 = 0.3916	0.0521 ± 0.00239
x2 = 0.6588	0.0288 ± 0.00163
x2 = 0.8528	0.0125 ± 0.00112

CCn1cc[n+](C)c1.O=S(=O)([N-]S(=O)(=O)C(F)(F)F)C(F)(F)F + CCCO
323.15 K, 101.3 kPa
Settings	excess molar enthalpy [kcal/mol]
x2 = 0.0418	0.0767 ± 0.00311
x2 = 0.0812	0.15 ± 0.00574
x2 = 0.1536	0.27 ± 0.01
x2 = 0.277	0.451 ± 0.0163
x2 = 0.4629	0.626 ± 0.0222
x2 = 0.6741	0.623 ± 0.0222
x2 = 0.8082	0.488 ± 0.0174
x2 = 0.9602	0.151 ± 0.00574

CCCCCC[n+]1ccn(C)c1.O=S(=O)([N-]S(=O)(=O)C(F)(F)F)C(F)(F)F + CCO
353.15 K, 101 kPa
Settings	excess molar enthalpy [kcal/mol]
x2 = 0.0506	0.0647 ± 0.00287
x2 = 0.1012	0.132 ± 0.00502
x2 = 0.1517	0.202 ± 0.00765
x2 = 0.2022	0.269 ± 0.0098
x2 = 0.4534	0.51 ± 0.0182
x2 = 0.6033	0.551 ± 0.0196
x2 = 0.9012	0.257 ± 0.00956
x2 = 0.9506	0.138 ± 0.00526
